Measurements as given in patent US6960683B2, “Salt forms of poorly soluble probucol esters and ethers” (Atherogenics, Inc., priority 2002, dated 2005).
Structures can show the parent of a compound that is named as a salt. Where two headings read alike, the source gives them in different places.

Tests used:
VCAM-1 = assay: In Vitro VCAM-1 Assay (ELISA of TNF-α-stimulated endothelial cells); type: cell-based, human; conditions: HAEC or HPAEC cells stimulated with TNF-α (1 ng/ml), approx. 16 h, n = 3
Procedure: Cell Culture and compound dosing: Cultured primary human aortic (HAEC) or pulmonary (HPAEC) endothelial cells were obtained from Clonetics, Inc., and were used below passage 9. Cells were seeded in 96 well plates such that they would reach 90-95% confluency by the following day. On the following day the cells were stimulated with TNF-α (1 ng/ml) in the presence or absence of compounds dissolved in DMSO such that the final concentration of DMSO is 0.25% or less. To establish a dose curve for each compound, four concentrations in 2- to 5-fold increments were used. Cells were exposed to TNF-α and compounds for approximately 16 hours. The next day the cells were examined under microscope to score for visual signs of toxicity or cell stress.
Following 16 hr exposure to TNF-α and compound the media was discarded and the cells were washed once with Hanks Balanced Salt Solution (HBSS)/Phosphate buffered saline (PBS) (1:1). Primary antibodies against VCAM-1 (0.25 μg/ml in HBSS/PBS+5% FBS) were added and incubated for 30-60 minutes at 37° C. Cells were washed with HBSS/PBS three times, and secondary antibody Horse Radish Peroxidase (HRP)-conjugated goat anti-mouse IgG (1:500 in HBSS/PBS+5% FBS) were added and incubated for 30 minutes at 37° C. Cells were washed with HBSS/PBS four times and TMB substrate were added and incubated at room temperature in the dark until there was adequate development of blue color. The length of time of incubation was typically 5-15 minutes. 2N sulfuric acid was added to stop the color development and the data was collected by reading the absorbance on a BioRad ELISA plate reader at OD 450 nm. The results are expressed as IC50 values (the concentration (micromolar) of compound required to inhibit 50% of the maximal response of the control sample stimulated by TNF-α only). IC50's of the Examples and the free acid of the Examples are tabulated in VCAM-1 Table 1a.

Solubility in water = type: physicochemical; conditions: for solubility: water, 25 °C
[1] = Homo sapiens, Endothelial cell, meglumine salt of the Example, read-out: IC50 (μM) (n = 3)
[2] = meglumine salt of the Example, ˜25° C., read-out: Solubility (μg/ml) @ ˜25° C.
[3] = meglumine salt, value given in the synthesis example, read-out: Solubility in water
[4] = Homo sapiens, Endothelial cell, free acid of the Example, read-out: IC50 (μM) of the free acid (n = 3)
[5] = free acid of the Example, ˜25° C., read-out: Solubility, Free acid (μg/ml) @ ˜25° C.

SMILES | IC50 (VCAM-1; free acid of the Example, read-out: IC50 (μM) of the free acid (n = 3)) [µM] | Solubility, Free acid (μg/ml) @ ˜25° C. (Solubility in water; free acid of the Example, ˜25° C.) [µg/mL] | IC50 (VCAM-1; [1]) [µM] | solubility (Solubility in water; [2]) [µg/mL] | solubility (Solubility in water; [3]) [µg/mL] | IC50 (VCAM-1; [4]) [µM] | solubility (Solubility in water; [5]) [µg/mL]
CC(C)(Sc1cc(C(C)(C)C)c(O)c(C(C)(C)C)c1)Sc1cc(C(C)(C)C)c(OC(=O)CCC(=O)O)c(C(C)(C)C)c1 [Example 1 free acid, Butanedioic acid, mono [4-[[1-[[3,5-bis(1,1-dimethylethyl)-4-hydroxyphenyl]thio]-1-methylethyl]thio]-2,6-bis(1,1-dimethylethyl)phenyl]ester, reference compound] | 7.7 | <5 | – | – | – | – | –
CC(C)(Sc1cc(C(C)(C)C)c(O)c(C(C)(C)C)c1)Sc1cc(C(C)(C)C)c(OC(=O)CCC(=O)O)c(C(C)(C)C)c1 [Example 1, Butanedioic Acid, Mono [4-[[1-[[3,5-bis(1,1-dimethylethyl)-4-hydroxyphenyl]thio]-1-methylethyl]thio]-2,6-bis(1,1-dimethylethyl)phenyl]Ester Meglumine Salt] | – | – | 13 | 390 | 390 | – | –
CC(C)(Sc1cc(C(C)(C)C)c(O)c(C(C)(C)C)c1)Sc1cc(C(C)(C)C)c(OCC(=O)O)c(C(C)(C)C)c1 [Example 2 free acid, Acetic acid, [4-[[1-[[3,5-bis(1,1-dimethylethyl)-4-hydroxyphenyl]thio]-1-methyl-ethyl]thio]-2,6-bis(1,1-dimethylethyl)phenoxy]-, reference compound] | – | – | – | – | – | 10 | < 5
CC(C)(Sc1cc(C(C)(C)C)c(O)c(C(C)(C)C)c1)Sc1cc(C(C)(C)C)c(OCC(=O)O)c(C(C)(C)C)c1 [Example 2, Acetic Acid, [4-[[1-[[3,5-bis(1,1-dimethylethyl)-4-hydroxyphenyl]thio]-1-methylethyl]thio]-2,6-bis(1,1-dimethylethyl)phenoxy]-, Meglumine Salt] | – | – | 6.5 | 1010 | 1010 | – | –
CC(C)(Sc1cc(C(C)(C)C)c(O)c(C(C)(C)C)c1)Sc1cc(C(C)(C)C)c(OCCCC(=O)O)c(C(C)(C)C)c1 [Example 3 free acid, Butanoic acid, 4-[4-[[1-[[3,5-bis(1,1-dimethylethyl)4-hydroxyphenyl]thio]-1-methyl-ethyl]thio]-2,6-bis(1,1-dimethylethyl)phenoxy]-, reference compound] | – | – | – | – | – | 11 | < 5
CC(C)(Sc1cc(C(C)(C)C)c(O)c(C(C)(C)C)c1)Sc1cc(C(C)(C)C)c(OCCCC(=O)O)c(C(C)(C)C)c1 [Example 3, Butanoic Acid, 4-[4-[[1-[[3,5-bis(1,1-dimethylethyl)4-hydroxyphenyl]thio]-1-methylethyl]-thio]-2,6-bis(1,1-dimethylethyl)phenoxy]-, Meglumine Salt] | – | – | 12 | 1910 | 1910 | – | –
